# In ChEMBL document CHEMBL1165948, “The scope of thallium nitrate oxidative cyclization of chalcones; synthesis and evaluation of isoflavone and aurone analogs for their inhibitory activity against interleukin-5” (Bioorg Med Chem, 2010):
# Target: T1, Interleukin-5 (Mus musculus) (UniProt P04401)
# T1 sequence (whole entry): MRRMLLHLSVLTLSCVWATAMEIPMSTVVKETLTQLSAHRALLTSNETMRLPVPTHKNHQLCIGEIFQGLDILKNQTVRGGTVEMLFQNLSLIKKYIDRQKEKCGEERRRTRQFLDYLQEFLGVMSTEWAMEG
# Experiment: Inhibition of IL5-mediated proliferation of mouse Y16 cells at 50 uM by WST1 assay
# Assay type: cell-based
row,SMILES,inhibition
1,COC(=O)c1ccc(/C=C2\Oc3cccc(OCC4CCCCC4)c3C2=O)cc1,3.5%
2,O=C1/C(=C/c2ccc(Cl)cc2)Oc2cccc(OCC3CCCCC3)c21,12.2%
3,O=c1c(-c2ccc(O[C@@H]3O[C@H](CO)[C@@H](O)[C@H](O)[C@H]3O)cc2)coc2cc(O)cc(O)c12,92.1%
4,COc1ccc(-c2coc3cccc(OCC4CCCCC4)c3c2=O)cc1OC,30.6%
5,COc1ccc(-c2coc3cccc(OCC4CCCCC4)c3c2=O)c(OC)c1,15.6%
6,COCOc1ccc(-c2coc3cccc(OCC4CCCCC4)c3c2=O)cc1,10.5%
7,O=c1c(-c2ccc(O)cc2)coc2cccc(OCC3CCCCC3)c12,91.7%
8,O=C1/C(=C/c2ccccc2)Oc2cccc(OCC3CCCCC3)c21,3.1%
9,COc1cc(-c2coc3cccc(OCC4CCCCC4)c3c2=O)ccc1O,15.7%
10,COc1cc(-c2coc3cccc(OCC4CCCCC4)c3c2=O)cc(OC)c1OC,> 100%
11,CCc1ccc(-c2coc3cccc(OCC4CCCCC4)c3c2=O)cc1,9.7%
12,CCc1ccc(/C=C2\Oc3cccc(OCC4CCCCC4)c3C2=O)cc1,3.8%
13,COc1cc(-c2coc3cccc(OCC4CCCCC4)c3c2=O)ccc1OCc1ccccc1,99.8%
14,COc1ccc(-c2coc3cccc(OCC4CCCCC4)c3c2=O)cc1,15.4%
15,O=Cc1ccc(/C=C2\Oc3cccc(OCC4CCCCC4)c3C2=O)cc1,8%
16,O=C1/C(=C/c2ccc([N+](=O)[O-])cc2)Oc2cccc(OCC3CCCCC3)c21,5.7%
